In US20260013504A1, “HERBICIDAL MIXTURE, HERBICIDAL COMPOSITION, METHOD, USE, AND KITS FOR CONTROLLING UNDESIRABLE VEGETATION” (ADAMA AGAN LTD., priority 2022, published 2026):

Experiments:
Assay type in all cases: in vivo
Galium aparine = assay: Pot experiment, soil treatment, control of Galium aparine (fresh weight, Colby)
Procedure: (§1) Referring to an article of Colby, S. R. i.e., Calculation of the synergistic and antagonistic response of herbicide combinations.
(§2) E0-E value is calculated to evaluate the combined effect of pyroxasulfone and the second herbicide selected from the group consisting of fluorochloridone, aclonifen, diflufenican and terbutryn on the selected weeds.
(§3) In this Example, the herbicidal activity of treatments by a mixture of pyroxasulfone and the second herbicide selected from the group consisting of fluorochloridone, aclonifen, diflufenican and terbutryn for controlling Aegilops tauschii was investigated by a pot experiment. This Example was carried out in accordance with “NY/T 1155.4-2006 Guidelines for Indoor Bioassay Tests of Pesticides, Herbicides Part 4: Activity Determination Tests, Stem and Leaf Spray Method”. • Source of the agrochemicals tested were: • Pyroxasulfone: pyroxasulfone (850g/Kg, WG) from Adama Agan LTD. • Fluorochloridone: fluorochloridone (250 g/L, EC) from Adama Agan LTD. • Aclonifen: aclonifen (600 g/L, SC) from Adama Agan LTD. • Diflufenican: diflufenican (50g/Kg, WP) from Bayer. • Terbutryn: terbutryn (50g/Kg, SC) from Zhejiang Zhongshan Chemical Industry Group Co., Ltd. • Cultivation of test materials: The test soil was formed by mixing the 20 cm layer loam on the ground surface and the culture medium in a ratio of 3:1 as cultivation soil. Weeds were cultivated in an artificial climate chamber. The daytime and nighttime temperatures were set at 22° C. and 19° C., respectively, and the illumination was set at daytime: dark time 12h: 12h.
(§4) A certain amount of Aegilops tauschii seeds were sown in a plastic pot with a diameter of 9 cm, covering with 1-2 mm soil, and putting them in an enamel dish filled with water. The bottom infiltration method was used to water them, the agrochemicals tested in this Example were applied on the second day after sowing Aegilops tauschii seeds.
(§5) Spraying treatment: ASS-4 automatic control spraying system with a fan-shaped nozzle was used indoors to spray the agrochemicals, the running speed was adjusted based on nozzle pressure, flow rate, etc. to spray 50 mL of liquid of agrochemicals on the actual spray area of 1.1 m2 (equivalent to 30 liters per mu), arranging the plastic pots to be processed on the spraying table evenly, and spraying evenly. The spraying pressure was 0.35 MPa, and the flow rate of the fan-shaped nozzle was 800 mL/min, spraying in order from low dosage to high dosage. Each treatment was repeated 3 times. After spraying, the plastic pots were dried for one day, placed in an artificial climate chamber, and watered regularly to keep moist.
(§6) Weed investigation method and time: after applying the agrochemicals, the symptoms of weed damage (such as growth inhibition, chlorosis, deformity, etc.) were recorded in detail. After 35 days, the fresh weight of aerial part of the weeds in each treatment was weighed, and the measured fresh weight inhibition rate and the measured fresh weight survival rate for each treatment were calculated according to the following equations: […]
Example 4 was conducted substantially the same way as Example 1, except that Galium aparine was used instead of Aegilops tauschii.

Lolium multiflorum Lamk = assay: Pot experiment, soil treatment, control of Lolium multiflorum Lamk (fresh weight, Colby); conditions: mixtures: both AIs at these rates, after 35 days
Procedure: as §1, §2, §3, §4, §5, §6
Example 2 was conducted in substantially the same way as Example 1, except that Lolium multiflorum Lamk was used instead of Aegilops tauschii.

Solanum nigrum = assay: Pot experiment (glass greenhouse), soil treatment, control of Solanum nigrum (fresh weight, Colby)
Procedure: as §1, §2, §3, §4, §5, §6
Example 6 was substantially conducted in the same as Example 1, except that (1) Solanum nigrum was used instead of Aegilops tauschii, (2) in “Cultivation of test materials” part, Solanum nigrum was cultivated in a glass greenhouse instead of an artificial climate chamber at a temperature of 25 to 33° C. with a natural illumination, and (3) in “Spraying treatment” part, after spraying and drying, the plastic pots were placed in a glass greenhouse instead of an artificial climate chamber.

Bromus japonicus = assay: Pot experiment, soil treatment, control of Bromus japonicus (fresh weight, Colby); conditions: mixtures: both AIs at these rates, after 35 days
Procedure: as §1, §2, §3, §4, §5, §6
Example 3 was conducted in substantially the same way as Example 1, except that Bromus japonicus was used instead of Aegilops tauschii.

Lithospermum arvense = assay: Pot experiment, soil treatment, control of Lithospermum arvense (fresh weight, Colby)
Procedure: as §1, §2, §3, §4, §5, §6
Example 5 was conducted substantially the same way as Example 1, except that Lithospermum arvense was used instead of Aegilops tauschii.

Aegilops tauschii = assay: Pot experiment, soil treatment, control of Aegilops tauschii (fresh weight, Colby); conditions: mixtures: both AIs at these rates, after 35 days
From the text: as §1
E0 is the theoretical fresh weight survival rate for the mixture of pyroxasulfone and the second herbicide selected from the group consisting of fluorochloridone, aclonifen, diflufenican and terbutryn;
X is the measured fresh weight survival rate for pyroxasulfone used alone at the same dosage as that in the mixture;
Y is the measured fresh weight survival rate for the second herbicide selected from the group consisting of fluorochloridone, aclonifen, diflufenican and terbutryn used alone at the same dosage as that in the mixture;
E is the measured fresh weight survival rate for the mixture of pyroxasulfone and the second herbicide selected from the group consisting of fluorochloridone, aclonifen, diflufenican and terbutryn.
as §2, §3, §4, §5, §6

[1] = g ai/ha: pyroxasulfone 11.25, fluorochloridone 31.25, aclonifen 150, diflufenican 14.0625, terbutryn 140.625
[2] = g ai/ha: pyroxasulfone 22.5, fluorochloridone 62.5, aclonifen 300, diflufenican 28.125, terbutryn 281.25
[3] = g ai/ha: pyroxasulfone 45, fluorochloridone 125, aclonifen 600, diflufenican 56.25, terbutryn 562.5
[4] = g ai/ha: pyroxasulfone 90, fluorochloridone 250, aclonifen 1200, diflufenican 112.5, terbutryn 1125
[5] = g ai/ha: pyroxasulfone 180, fluorochloridone 500, aclonifen 2400, diflufenican 225, terbutryn 2250
[6] = g ai/ha: pyroxasulfone 360, fluorochloridone 1000, aclonifen 4800, diflufenican 450, terbutryn 4500

3-chloro-4-(chloromethyl)-1-(3-(trifluoromethyl)phenyl)-2-pyrrolidione [fluorochloridone]
Measured fresh weight inhibition rate (%) (Galium aparine; 31.25 g ai/ha): 63.0% | Measured fresh weight survival rate (%) - E (Galium aparine; 31.25 g ai/ha): 37.0% | Measured fresh weight inhibition rate (%) (Galium aparine; 62.5 g ai/ha): 84.9% | Measured fresh weight survival rate (%) - E (Galium aparine; 62.5 g ai/ha): 15.1% | Measured fresh weight inhibition rate (%) (Galium aparine; 125 g ai/ha): 93.2% | Measured fresh weight survival rate (%) - E (Galium aparine; 125 g ai/ha): 6.8% | Measured fresh weight inhibition rate (%) (Galium aparine; 250 g ai/ha): 95.9% | Measured fresh weight survival rate (%) - E (Galium aparine; 250 g ai/ha): 4.1% | Measured fresh weight inhibition rate (%) (Galium aparine; 500 g ai/ha): 100.0% | Measured fresh weight survival rate (%) - E (Galium aparine; 500 g ai/ha): 0.0% | Measured fresh weight inhibition rate (%) (Lolium multiflorum Lamk; [1]): 93.2% | Measured fresh weight survival rate (%) - E (Lolium multiflorum Lamk; [1]): 6.8% | Measured fresh weight inhibition rate (%) (Lolium multiflorum Lamk; [2]): 96.4% | Measured fresh weight survival rate (%) - E (Lolium multiflorum Lamk; [2]): 3.6% | Measured fresh weight inhibition rate (%) (Lolium multiflorum Lamk; [3]): 98.4% | Measured fresh weight survival rate (%) - E (Lolium multiflorum Lamk; [3]): 1.6% | Measured fresh weight inhibition rate (%) (Lolium multiflorum Lamk; [4]): 100.0% | Measured fresh weight survival rate (%) - E (Lolium multiflorum Lamk; [4]): 0.0% | Measured fresh weight inhibition rate (%) (Lolium multiflorum Lamk; [5]): 100.0% | Measured fresh weight survival rate (%) - E (Lolium multiflorum Lamk; [5]): 0.0% | Measured fresh weight inhibition rate (%) (Lolium multiflorum Lamk; [6]): 100.0% | Measured fresh weight survival rate (%) - E (Lolium multiflorum Lamk; [6]): 0.0% | Measured fresh weight inhibition rate (%) (Solanum nigrum; 31.25 g ai/ha): 18.8% | Measured fresh weight survival rate (%) - E (Solanum nigrum; 31.25 g ai/ha): 81.2% | Measured fresh weight inhibition rate (%) (Solanum nigrum; 62.5 g ai/ha): 32.5% | Measured fresh weight survival rate (%) - E (Solanum nigrum; 62.5 g ai/ha): 67.5% | Measured fresh weight inhibition rate (%) (Solanum nigrum; 125 g ai/ha): 67.1% | Measured fresh weight survival rate (%) - E (Solanum nigrum; 125 g ai/ha): 32.9% | Measured fresh weight inhibition rate (%) (Solanum nigrum; 250 g ai/ha): 99.6% | Measured fresh weight survival rate (%) - E (Solanum nigrum; 250 g ai/ha): 0.4% | Measured fresh weight inhibition rate (%) (Solanum nigrum; 500 g ai/ha): 100.0% | Measured fresh weight survival rate (%) - E (Solanum nigrum; 500 g ai/ha): 0.0% | Measured fresh weight inhibition rate (%) (Bromus japonicus; [1]): 94.8% | Measured fresh weight survival rate (%) - E (Bromus japonicus; [1]): 5.2% | Measured fresh weight inhibition rate (%) (Bromus japonicus; [2]): 96.9% | Measured fresh weight survival rate (%) - E (Bromus japonicus; [2]): 3.1% | Measured fresh weight inhibition rate (%) (Bromus japonicus; [3]): 100.0% | Measured fresh weight survival rate (%) - E (Bromus japonicus; [3]): 0.0% | Measured fresh weight inhibition rate (%) (Bromus japonicus; [4]): 100.0% | Measured fresh weight survival rate (%) - E (Bromus japonicus; [4]): 0.0% | Measured fresh weight inhibition rate (%) (Bromus japonicus; [5]): 100.0% | Measured fresh weight survival rate (%) - E (Bromus japonicus; [5]): 0.0% | Measured fresh weight inhibition rate (%) (Lithospermum arvense; 31.25 g ai/ha): 47.8% | Measured fresh weight survival rate (%) - E (Lithospermum arvense; 31.25 g ai/ha): 52.2% | Measured fresh weight inhibition rate (%) (Lithospermum arvense; 62.5 g ai/ha): 97.1% | Measured fresh weight survival rate (%) - E (Lithospermum arvense; 62.5 g ai/ha): 2.9% | Measured fresh weight inhibition rate (%) (Lithospermum arvense; 125 g ai/ha): 98.6% | Measured fresh weight survival rate (%) - E (Lithospermum arvense; 125 g ai/ha): 1.4% | Measured fresh weight inhibition rate (%) (Lithospermum arvense; 250 g ai/ha): 100.0% | Measured fresh weight survival rate (%) - E (Lithospermum arvense; 250 g ai/ha): 0.0% | Measured fresh weight inhibition rate (%) (Lithospermum arvense; 500 g ai/ha): 100.0% | Measured fresh weight survival rate (%) - E (Lithospermum arvense; 500 g ai/ha): 0.0% | Measured fresh weight inhibition rate (%) (Aegilops tauschii; [1]): 0.0% | Measured fresh weight survival rate (%) - E (Aegilops tauschii; [1]): 100.0% | Measured fresh weight inhibition rate (%) (Aegilops tauschii; [2]): 7.9% | Measured fresh weight survival rate (%) - E (Aegilops tauschii; [2]): 92.1% | Measured fresh weight inhibition rate (%) (Aegilops tauschii; [3]): 11.0% | Measured fresh weight survival rate (%) - E (Aegilops tauschii; [3]): 89.0% | Measured fresh weight inhibition rate (%) (Aegilops tauschii; [4]): 49.4% | Measured fresh weight survival rate (%) - E (Aegilops tauschii; [4]): 50.6% | Measured fresh weight inhibition rate (%) (Aegilops tauschii; [5]): 79.3% | Measured fresh weight survival rate (%) - E (Aegilops tauschii; [5]): 20.7% | Measured fresh weight inhibition rate (%) (Aegilops tauschii; [6]): 93.9% | Measured fresh weight survival rate (%) - E (Aegilops tauschii; [6]): 6.1%
